≈ marks a conversion by molar mass, not a printed value.
Key:
CDK2 = CDK2 (Homo sapiens, UniProt P24941); test: CDK2 assay (histone H1 phosphorylation, 32P-ATP filter assay); type: biochemical; details: concentration required to inhibit CDK2 activity by 50%; histone H1, 30 μM ATP, 30° C., 30 min; read-out: IC50 (μg/mL) enzyme (converted)
Description: Compositions of this invention were assayed to determine their CDK2 inhibitory activity. The assay system (total volume of 50 μl) contained 50 mM Tris-Cl, pH 7.4, 10 mMgCl2, 5 mM DTT, 1 μg of histone H1, 30 μM ATP (1 μCi of gamma ^32P labeled ATP?), 10 μg of BSA and 1 μg of purified CDK2. After incubation at 30° C. for 30 min, the reaction was terminated by the addition of 10 μl of 10% TCA and the samples were blotted onto to nitrocellulose filters. These filters were washed extensively in 10% TCA and assayed for radioactivity. Blanks contained no enzyme. […] After incubation at 30 min., the assay tubes Were processed as above.

[1] = tested on: PupVSMC rat neonatal aortic smooth muscle cells; test: Cell proliferation assay, PupVSMC; type: cell-based; details: Rat neonatal aortic smooth muscle cells, Table 9; the values are: IC50
Description: (§1) Early passage rat aortic smooth muscle cells (CV Therapeutics Cell repository) were seeded in 48 well dishes (Falcon, […]) at a density of 20,000 cells/ml of DME containing 5% heat inactivated bovine serum. The cells were incubated in a standard tissue culture incubator for 48 hr. The medium was aspirated and the wells were replenished with 0.2 ml of fresh medium. Compounds of this invention were added at concentrations ranging from 100 to 0.37 μg/ml. After 48 hr incubation, the medium was aspirated and the cultures were treated with 0.2 ml of saline 0.25 μl of phenozine methosulfate solution containing MTS (Cell Titer 96® Aqueous Non-radioactive cell proliferation assay kit, Catalog # G 5430, Promega, 2800 Woods Hollow Road, Madison, Wis. 53711-5399).
(§2) Similar assays were performed using the following cell lines; P388—mouse lymphoid neoplasm; L1210—mouse lympheytic leukemia; Caco2 human colon adenocarcinoma; MCF7 human breast adenocarcinoma; PupVSMC rat neonatal aortic smooth muscle cells; Ovcar human ovarian Carcinoma; Pancl human pancreatic adenocarcinoma; and HUVEC human umbilical cord endothelial cells.

[2] = tested on: rat aortic smooth muscle cells; test: Cell proliferation assay, rat aortic smooth muscle cells (MTS); type: cell-based; details: concentration required to inhibit cell proliferation by 50%, 48 hr incubation, read-out: IC50 (μg/mL) cells
Description: as §1

[3] = tested on: L1210 mouse lympheytic leukemia; test: Cell proliferation assay, L1210; type: cell-based; details: Mus musculus, L1210; L 120 cells; read-out: IC50 (μg/ml) for Inhibition of Cell Proliferation, L 120
Description: as §1, §2

[4] = tested on: Caco2 human colon adenocarcinoma; test: Cell proliferation assay, Caco2; type: cell-based; details: Homo sapiens, Caco-2; Caco2 cells; read-out: IC50 (μg/ml) for Inhibition of Cell Proliferation, Caco2
Description: as §1, §2

[5] = tested on: MCF7 human breast adenocarcinoma; test: Cell proliferation assay, MCF7; type: cell-based; details: Homo sapiens; MCF7 cells; read-out: IC50 (μg/ml) for Inhibition of Cell Proliferation, MCF7
Description: as §1, §2

[6] = tested on: Pancl human pancreatic adenocarcinoma; test: Cell proliferation assay, Panc1; type: cell-based; details: Panc 1 cells
Description: as §1, §2

[7] = tested on: Ovcar human ovarian Carcinoma; test: Cell proliferation assay, OvCar; type: cell-based; details: OvCar cells
Description: as §1, §2

[8] = tested on: P388 mouse lymphoid neoplasm; test: Cell proliferation assay, P388; type: cell-based; details: P388 cells
Description: as §1, §2

| SMILES | IC50 (CDK2) [nM] | also measured |
| --- | --- | --- |
| CC(C)n1cnc2c(NCc3ccc4c(c3)OCO4)nc(N(CCO)CCO)nc21 | 1930 |  |
| COc1ccc(CNc2nc(N(CC(C)O)CC(C)O)nc3c2ncn3C(C)C)cc1 (stereo not drawn) | 1870 |  |
| COc1cccc(CNc2nc(Cl)nc3c2ncn3C(C)C)c1 | 2710 |  |
| CC(C)n1cnc2c(NCC3CCCCC3)nc(Cl)nc21 | 3250 |  |
| CC(C)n1cnc2c(NCc3ccc(Cl)cc3)nc(N(CCN)CCO)nc21 [2-[(2-aminoethyl)(6-{[(4-chlorophenyl)methyl]amino}-9-(methylethyl)purin-2-yl)amino]ethan-1-ol] |  | inhibitory activity, Pup VSMC [1]: 0.3 µg/mL |
| OCCNc1nc(NCc2ccccc2)nc2[nH]cnc12 [R1=ethanolamino; R2=H; R3=Benzylamino] | > 211000 |  |
| CC(C)n1cnc2c(NCc3ccc(F)cc3)nc(NCCN)nc21 |  | IC50 [2]: 1.4 µg/mL (≈ 4.08 µM) |
| CC(C)n1cnc2c(NCc3ccc(-c4ccccc4)cc3)nc(N(CCO)CCO)nc21 | 1340 |  |
| CSc1ccc(Nc2nc(Cl)nc3c2ncn3C(C)C)cc1 | 1800 |  |
| CC(N)CNc1nc(NCc2ccc(Cl)cc2)c2ncn(C(C)C)c2n1 (stereo not drawn) [{2-[(2-aminopropyl)amino]-9-(methylethyl)purin-6-yl}[(4-chlorophenyl)methyl]amine] |  | inhibitory activity, Pup VSMC [1]: 0.1 µg/mL |
| COc1cccc(CNc2nc(N(CCO)CCO)nc3c2ncn3C(C)C)c1 | 1250 |  |
| CC(C)[C@H](CO)Nc1nc(NCc2ccc(F)cc2)c2ncn(C(C)C)c2n1 | 155 | IC50 [2]: 2.7 µg/mL (≈ 6.99 µM) |
| CC(C)n1cnc2c(NCc3ccc(Cl)cc3)nc(NCC(O)c3ccccc3)nc21 (stereo not drawn) | 183 | IC50 [2]: > 5 µg/mL |
| FC(F)(F)n1cnc2c(NCc3ccc(Cl)cc3)nc(Cl)nc21 | 2760 |  |
| COc1ccc(CNc2nc(NCC(O)CN)nc3c2ncn3C(C)C)cc1 (stereo not drawn) | 1560 | IC50 [2]: 25 µg/mL (≈ 64.9 µM) |
| COc1ccc(CNc2nc(Cl)nc3c2ncn3CCCCl)cc1 | > 164000 |  |
| CSc1ccc(Nc2nc(N(CCO)CCO)nc3c2ncn3C(C)C)cc1 | 174 |  |
| COc1ccc(CNc2nc(Cl)nc3c2ncn3C)cc1 [R1=4-methoxybenzylamino; R2=Me; R3=Cl] | 19800 | IC50 [2]: > 70 µg/mL |
| CCC(CO)Nc1nc(NCc2ccc(F)cc2)c2ncn(C(C)C)c2n1 (stereo not drawn) |  | IC50 [2]: 2.4 µg/mL (≈ 6.44 µM) |

| SMILES | IC50 (CDK2) [nM] | also measured |
| --- | --- | --- |
| COc1ccc(CNc2nc(Cl)nc3c2ncn3C(F)(C(F)(F)F)C(F)(F)F)cc1 | > 98300 |  |
| CC(C)n1cnc2c(NCc3ccc(-c4ccccc4)cc3)nc(N(CCO)CCO)nc21 [2-diethanolamino-6-(4-phenybenzylamino)-9-isopropyl Purine] |  | IC50 [3]: 1 µg/mL (≈ 2.24 µM); IC50 [4]: 3.5 µg/mL (≈ 7.84 µM); IC50 [5]: 1 µg/mL (≈ 2.24 µM); IC50 ([6]; Homo sapiens, read-out: IC50 (μg/ml) for Inhibition of Cell Proliferation, Panc 1): 1.3 µg/mL (≈ 2.91 µM); IC50 ([7]; Homo sapiens, read-out: IC50 (μg/ml) for Inhibition of Cell Proliferation, OvCar): 2 µg/mL (≈ 4.48 µM) |
| COc1ccc(CNc2nc(Cl)nc3c2ncn3CCCC#N)cc1 | > 168000 |  |
| COc1ccc(CNc2nc(N3CC=CC3)nc3c2ncn3C(C)C)cc1 | 2740 | IC50 [2]: 12.5 µg/mL (≈ 34.3 µM) |
| CC(C)n1cnc2c(Nc3ccccc3)nc(Cl)nc21 [R1=anilino; R2=isopropyl; R3=Cl] | 3480 |  |
| CC(=O)C(C)n1cnc2c(NCc3ccc(Cl)cc3)nc(N(CCO)CCO)nc21 (stereo not drawn) | 85500 |  |
| COc1ccc(CNc2nc(NC(CO)CO)nc3c2ncn3C(C)C)cc1 |  | IC50 [2]: 15 µg/mL (≈ 38.8 µM) |
| COc1ccc(CNc2nc(N3CCCC(O)C3)nc3c2ncn3C(C)C)cc1 (stereo not drawn) | 2520 |  |
| CC(C)n1cnc2c(NCc3ccc(F)cc3)nc(NC[C@@H](C)O)nc21 | 642 | IC50 [2]: > 5 µg/mL |
| CSc1cccc(Nc2nc(N(CCO)CCO)nc3c2ncn3C(C)C)c1 | 248 |  |
| COc1ccc(CNc2nc(N(CCO)CCO)nc3c2ncn3CCO)cc1 | 1240 | IC50 [2]: 62 µg/mL (≈ 154 µM) |
| CC(=O)C(C)n1cnc2c(NCc3ccc(F)cc3)nc(N(CCO)CCO)nc21 (stereo not drawn) | 26400 |  |
| COc1ccc(CNc2nc(N3CCOCC3)nc3c2ncn3C(C)C)cc1 |  | IC50 (μg/ml) for Inhibition of Cell Proliferation, P 388 [8]: >5 µg/mL; IC50 (μg/ml) for Inhibition of Cell Proliferation, Panc 1 [6]: 5.5 µg/mL; IC50 (μg/ml) for Inhibition of Cell Proliferation, OvCar [7]: 4.0 µg/mL |
| COc1ccc(CNc2nc(Cl)nc3c2ncn3C(C)C)cc1 | 12100 | IC50 [2]: 77 µg/mL (≈ 232 µM) |
| Cn1cnc2c(NCCO)nc(NCCO)nc21 [R1=ethanolamino; R2=Me; R3=Ethanolamino] | > 238000 | IC50 [2]: > 70 µg/mL |
| CC(C)n1cnc2c(NCc3ccc(F)cc3)nc(N(CCO)CCO)nc21 | 386 | IC50 [2]: 2.2 µg/mL (≈ 5.66 µM) |
| CC(C)n1cnc2c(NCc3ccc(Cl)cc3)nc(N(CCO)CCO)nc21 [listing 2 of 2 here] |  | inhibitory activity, Pup VSMC [1]: 0.3 µg/mL |
| COc1ccc(CNc2nc(N(CCO)CCO)nc3c2ncn3C(F)(C(F)(F)F)C(F)(F)F)cc1 | 76000 |  |
| COc1ccc(CNc2nc(N(CCO)CCO)nc3c2ncn3C)cc1 | 10700 | IC50 [2]: 48 µg/mL (≈ 129 µM) |

Now from value to compound, other results behind:

| IC50 (CDK2) [nM] | SMILES | also measured |
| --- | --- | --- |
| 2380 | CC(C)n1cnc2c(NCc3ccc(Cl)cc3)nc(NC[C@@H](N)Cc3ccccc3)nc21 |  |
| 2310 | CC(C)n1cnc2c(NCc3ccc(Cl)cc3)nc(N[C@@H](Cc3ccccc3)C(N)=O)nc21 |  |
| 1390 | CC(C)n1cnc2c(NCc3ccc(-c4ccccc4)cc3)nc(NCC(O)CO)nc21 (stereo not drawn) |  |
| 694 | CC(C)n1cnc2c(NCc3ccc(Cl)cc3)nc(N[C@@H](C)CO)nc21 |  |
| 1640 | CC(C)n1cnc2c(NCc3ccc(F)cc3)nc(NC[C@@H]3CCCO3)nc21 |  |
| 1340 | CC(N)CNc1nc(NCc2ccc(F)cc2)c2ncn(C(C)C)c2n1 (stereo not drawn) |  |
| 934 | CC(C)n1cnc2c(NCc3ccc(Cl)cc3)nc(N[C@H](C)CO)nc21 |  |
| 1010 | CC(C)n1cnc2c(NCc3ccc(Cl)cc3)nc(NC[C@H](C)O)nc21 |  |
| 492 | CC(C)[C@@H](CO)Nc1nc(NCc2ccc(F)cc2)c2ncn(C(C)C)c2n1 |  |
| 1170 | CC(C)n1cnc2c(NCc3ccc(-c4ccc(C(F)(F)F)cc4)cc3)nc(N(CCO)CCO)nc21 |  |
| 973 | CC(C)n1cnc2c(NCc3ccc(Cl)cc3)nc(NCCN)nc21 |  |
| 12200 | COc1ccc(CNc2nc(NCCO)nc3c2ncn3C)cc1 | IC50 [2]: 48 µg/mL (≈ 146 µM) |
| 358 | CC(C)n1cnc2c(NCc3ccc(-c4ccccn4)cc3)nc(N(CCO)CCO)nc21 |  |
| 1300 | Cc1ccc(-c2ccc(CNc3nc(N(CCO)CCO)nc4c3ncn4C(C)C)cc2)cc1 |  |
| 1090 | CC(C)n1cnc2c(Nc3cccc(-c4ccc(C#N)cc4)c3)nc(N(CCO)CCO)nc21 |  |
| 614 | CC(C)n1cnc2c(NCc3ccc(F)cc3)nc(NC[C@H](C)O)nc21 |  |
| 2670 | CC(C)n1cnc2c(NCc3ccc(Cl)cc3)nc(NCCCN)nc21 |  |
| 77100 | CC(C)n1cnc2c(NCc3ccc(Cl)cc3)nc(NCCCCCN)nc21 |  |
| 296 | CC(C)n1cnc2c(NCc3ccc(Cl)cc3)nc(N(CCO)CCO)nc21 [listing 1 of 2 here] |  |
| 1390 | CC(C)n1cnc2c(Nc3ccc(-c4ccccc4)cc3)nc(N(CCO)CCO)nc21 |  |
| 1510 | CC(C)n1cnc2c(NCc3ccc(F)cc3)nc(NC[C@H]3CCCO3)nc21 |  |
| > 158000 | COc1ccc(CNc2nc(Cl)nc3c2ncn3Cc2ccccc2)cc1 | IC50 [2]: > 70 µg/mL |
| 502 | CC(CO)Nc1nc(NCc2ccc(F)cc2)c2ncn(C(C)C)c2n1 (stereo not drawn) |  |
| 2240 | COc1ccc(CNc2nc(N(CCO)Cc3ccccc3)nc3c2ncn3C(C)C)cc1 |  |
| 1150 | CC(C)n1cnc2c(NCc3ccc(Cl)cc3)nc(NC[C@@H](C)O)nc21 |  |
| 124 | CC(C)[C@@H](CO)Nc1nc(NCc2ccc(Cl)cc2)c2ncn(C(C)C)c2n1 |  |
| 472 | CC(C)[C@H](CO)Nc1nc(NCc2ccc(Cl)cc2)c2ncn(C(C)C)c2n1 |  |
| 11200 | COc1ccc(CNc2nc(NCCO)nc3c2ncn3C(C)C)cc1 | IC50 [2]: 43 µg/mL (≈ 121 µM) |
| 1100 | CC(C)n1cnc2c(NCc3ccc(-c4cccs4)cc3)nc(N(CCO)CCO)nc21 |  |

— patent US6790958B2, “Purine inhibitors of cyclin dependent kinase 2 & IKBA” (priority 1996, dated 2004)
